Laboratory results published in patent US20240287079A1, “6-AMINOPYRAZOLOPYRIMIDINE COMPOUND AND PHARMACEUTICAL USE THEREOF” (Japan Tobacco Inc., priority 2021, published 2024).

These compounds were tested against NLRP3 inflammasome (Homo sapiens (Human), UniProt Q96P20) (assay: Evaluation of NLRP3 inflammasome inhibitory activity (inhibition of IL-1β production in LPS/Nigericin-stimulated THP1-Null cells)). Conditions: IL-1β production in THP1-Null cells, PMA, LPS 1 μg/mL, Nigericin 7.5 μmol/L, AlphaLISA.
Type: cell-based
Summary of the method: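 THP1-Null cells primed with 1 μg/mL LPS, then treated with test compound; supernatant IL-1β quantified by AlphaLISA. Inhibition calculated with blank wells as 100% and control wells as 0%.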

NLRP3 inflammasome, sequence (Q96P20 whole entry): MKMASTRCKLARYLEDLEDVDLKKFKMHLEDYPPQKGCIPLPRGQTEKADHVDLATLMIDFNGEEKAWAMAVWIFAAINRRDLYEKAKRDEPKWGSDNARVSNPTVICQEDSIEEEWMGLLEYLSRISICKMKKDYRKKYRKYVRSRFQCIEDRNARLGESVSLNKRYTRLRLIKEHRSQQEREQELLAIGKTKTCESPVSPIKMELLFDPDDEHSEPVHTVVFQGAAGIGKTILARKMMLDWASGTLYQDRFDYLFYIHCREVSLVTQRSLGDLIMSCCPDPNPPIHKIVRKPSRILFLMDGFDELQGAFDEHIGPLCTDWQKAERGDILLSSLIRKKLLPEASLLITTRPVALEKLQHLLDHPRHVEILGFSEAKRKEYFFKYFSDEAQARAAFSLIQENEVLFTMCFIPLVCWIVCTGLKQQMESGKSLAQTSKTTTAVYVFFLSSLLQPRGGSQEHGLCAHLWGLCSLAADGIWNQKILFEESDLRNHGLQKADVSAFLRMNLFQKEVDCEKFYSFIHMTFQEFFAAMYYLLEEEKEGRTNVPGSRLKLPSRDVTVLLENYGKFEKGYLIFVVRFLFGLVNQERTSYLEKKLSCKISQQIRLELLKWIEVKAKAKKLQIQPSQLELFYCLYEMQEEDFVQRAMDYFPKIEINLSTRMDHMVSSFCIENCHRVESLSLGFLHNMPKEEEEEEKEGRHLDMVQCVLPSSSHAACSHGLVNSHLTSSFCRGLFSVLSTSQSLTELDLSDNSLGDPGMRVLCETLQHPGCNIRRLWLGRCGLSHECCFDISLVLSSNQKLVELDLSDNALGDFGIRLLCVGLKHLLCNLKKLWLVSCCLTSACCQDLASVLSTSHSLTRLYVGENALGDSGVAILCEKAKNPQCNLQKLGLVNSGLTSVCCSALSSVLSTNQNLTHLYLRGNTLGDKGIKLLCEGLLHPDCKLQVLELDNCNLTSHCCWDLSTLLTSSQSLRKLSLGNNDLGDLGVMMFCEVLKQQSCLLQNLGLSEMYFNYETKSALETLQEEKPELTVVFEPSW

Row | Structure (SMILES) | IC50 [nM]
1 | O=c1[nH]c(N2CCOCCO2)nc2nn(-c3ccc(C4CC4)cc3C(F)(F)F)cc12 [Example 356] | 23
2 | Cc1cc(C(F)(F)F)cc(C)c1-n1cc2c(=O)[nH]c(N3CCOCCO3)nc2n1 [Example 357] | 28
3 | Cc1cc(CC(F)F)cc(C)c1-n1cc2c(=O)[nH]c(N3CCOCCO3)nc2n1 [Example 358] | 800
4 | Cc1cc(Br)cc(C)c1-n1cc2c(=O)[nH]c(NCCOCCO)nc2n1 [Example 360] | 6.1
5 | Cc1cc(Br)cc(C)c1-n1cc2c(=O)[nH]c(N(CCO)CCO)nc2n1 [Example 361] | 13
6 | Cc1cc(Br)cc(C)c1-n1cc2c(=O)[nH]c(N3C=COCC3)nc2n1 [Example 362] | 2.6

Same assay, conditions: IL-1β production in THP1-Null cells; test compound 0.0024 μM

Row | Structure (SMILES) | inhibition at 0.0024 µM [%]
7 | Cc1cc(Br)cc(C)c1-n1cc2c(=O)[nH]c(NCCO)nc2n1 [Example 359] | 69
